Values quoted from earlier work in US7718380B2 (Abbott Laboratories, priority 2005, dated 2010).

## C=CC[C@@H]1/C=C(\C)C[C@H](C)C[C@H](OC)[C@H]2O[C@@](O)(C(=O)C(=O)N3CCCC[C@H]3C(=O)O[C@H](/C(C)=C/[C@@H]3CC[C@@H](O)[C@H](OC)C3)[C@H](C)[C@@H](O)CC1=O)[C@H](C)C[C@@H]2OC [Tacrolimus]
  solubility in aqueous solutions: limited solubility
